Results reported in paper PMC12693701, “Glucosinolate-Derived Metabolites from Barbarea vulgaris (Brassicaceae): Evaluation of Antimicrobial, Antioxidant, and Anti-Inflammatory Potentials” (Molecules, 2025).
≈ marks a conversion by molar mass, not a printed value.

Test system: B. subtilis ATCC 6633
Test: Inhibition of biofilm formation (crystal violet)
Type: cell-based, Bacillus subtilis
Conditions: biofilm coverage reduced by 50%
Method: (§1) The procedure involved preparing 96-well microtiter plates (Sarstedt, Nümbrecht, Germany) by adding 100 μL of Mueller-Hinton nutrient broth to each well. A 10 μL aliquot of bacterial suspension (adjusted to 1.0 McFarland for Gram-positive bacteria and 0.5 McFarland for Gram-negative bacteria) was added to the wells. The plates were then incubated at 37 °C for 48 h to allow biofilm formation. After incubation, the wells were washed twice with 200 μL of sterile 0.85% saline to remove non-adherent and weakly adherent cells. Biofilms formed by the adherent bacteria were fixed with 100 μL of methanol until fully evaporated. The biofilms were then stained using 0.1% (w/v) crystal violet (Fluka Chemie AG, Buchs, Switzerland) and left at room temperature for 20 min. After staining, excess dye was washed off with deionized water, followed by 96% ethanol. Controls included wells containing only nutrient broth to check for sterility and nonspecific binding. Background absorbance from the sterile medium, fixative, and dye was subtracted from the OD readings of the test samples. All experiments were performed in triplicate.
(§2) To assess the inhibition of biofilm formation, 96-well microtiter plates (Sarstedt, Nümbrecht, Germany) were prepared by dispensing 100 μL of Mueller-Hinton broth into each well. From stock solutions of tested compounds (at 10 mg/mL), 100 μL was added to the first row of the plate, followed by twofold serial dilutions (from 5 to 0.039 mg/mL) using a multichannel pipette (Eppendorf AG, Hamburg, Germany). Subsequently, 10 μL of fresh bacterial suspension (adjusted to 0.5 McFarland for Gram-negative and 1.0 McFarland for Gram-positive bacteria) was added to each well. The plates were incubated at 37 °C for 48 h. After incubation, the contents of the wells were carefully removed by tapping, and the remainder of the experiment was conducted following the procedure described above.
(§3) Controls consisted of wells containing only broth or broth with the tested compounds to assess sterility and nonspecific binding. Background absorbance was subtracted from test readings as described earlier. All experiments were performed in triplicate, and tetracycline (Sigma-Aldrich, St. Louis, MO, USA), dissolved in nutrient broth, was used as a reference compound.

SMILES | BIC50
CSC(=S)NCCc1ccc(O)cc1 [Compound 2, methyl-4-hydroxyphenylethyl dithiocarbamate] | 290 µg/mL
O=C(O)C1CSC(=S)N1 (stereo not shown) [Compound 3, 2-Thioxothiazolidine-4-carboxylic Acid] | 1190 µg/mL
Oc1ccc(CCN=C=S)cc1 [Compound 8, 2-(4-hydroxyphenyl)ethyl isothiocyanate] | 1100 µg/mL
O=C1NCC(c2ccccc2)O1 (stereo not shown) [Compound 7, 5-Phenyl-1,3-oxazolidin-2-one] | >5000 µg/mL
S=C1NCC(c2ccccc2)O1 (racemic) [Compound 4, rac-5-Phenyl-1,3-oxazolidine-2-thione] | 2700 µg/mL

Same assay, conditions: biofilm coverage reduced by 90%

SMILES | BIC90
CSC(=S)NCCc1ccc(O)cc1 [Compound 2, methyl-4-hydroxyphenylethyl dithiocarbamate] | 1250 µg/mL
O=C(O)C1CSC(=S)N1 (stereo not shown) [Compound 3, 2-Thioxothiazolidine-4-carboxylic Acid] | 2500 µg/mL
Oc1ccc(CCN=C=S)cc1 [Compound 8, 2-(4-hydroxyphenyl)ethyl isothiocyanate] | 2300 µg/mL
O=C1NCC(c2ccccc2)O1 (stereo not shown) [Compound 7, 5-Phenyl-1,3-oxazolidin-2-one] | >5000 µg/mL
S=C1NCC(c2ccccc2)O1 (racemic) [Compound 4, rac-5-Phenyl-1,3-oxazolidine-2-thione] | >5000 µg/mL

Test system: S. aureus ATCC 25923
Test: Inhibition of biofilm formation (crystal violet)
Type: cell-based, Staphylococcus aureus
Conditions: biofilm coverage reduced by 50%
Method: as §1, §2, §3

SMILES | BIC50
CSC(=S)NCCc1ccc(O)cc1 [Compound 2, methyl-4-hydroxyphenylethyl dithiocarbamate] | 220 µg/mL
O=C(O)C1CSC(=S)N1 (stereo not shown) [Compound 3, 2-Thioxothiazolidine-4-carboxylic Acid] | 2500 µg/mL
Oc1ccc(CCN=C=S)cc1 [Compound 8, 2-(4-hydroxyphenyl)ethyl isothiocyanate] | 868 µg/mL
O=C1NCC(c2ccccc2)O1 (stereo not shown) [Compound 7, 5-Phenyl-1,3-oxazolidin-2-one] | >5000 µg/mL
S=C1NCC(c2ccccc2)O1 (racemic) [Compound 4, rac-5-Phenyl-1,3-oxazolidine-2-thione] | 1500 µg/mL

Same assay, conditions: biofilm coverage reduced by 90%

SMILES | BIC90
CSC(=S)NCCc1ccc(O)cc1 [Compound 2, methyl-4-hydroxyphenylethyl dithiocarbamate] | 2120 µg/mL
O=C(O)C1CSC(=S)N1 (stereo not shown) [Compound 3, 2-Thioxothiazolidine-4-carboxylic Acid] | >5000 µg/mL
Oc1ccc(CCN=C=S)cc1 [Compound 8, 2-(4-hydroxyphenyl)ethyl isothiocyanate] | 1360 µg/mL
O=C1NCC(c2ccccc2)O1 (stereo not shown) [Compound 7, 5-Phenyl-1,3-oxazolidin-2-one] | >5000 µg/mL
S=C1NCC(c2ccccc2)O1 (racemic) [Compound 4, rac-5-Phenyl-1,3-oxazolidine-2-thione] | >5000 µg/mL

Test system: P. mirabilis
Test: Inhibition of biofilm formation (crystal violet)
Type: cell-based, Proteus mirabilis
Conditions: biofilm coverage reduced by 50%
Method: as §1, §2, §3

SMILES | BIC50
CSC(=S)NCCc1ccc(O)cc1 [Compound 2, methyl-4-hydroxyphenylethyl dithiocarbamate] | 1158 µg/mL
O=C(O)C1CSC(=S)N1 (stereo not shown) [Compound 3, 2-Thioxothiazolidine-4-carboxylic Acid] | 3420 µg/mL
Oc1ccc(CCN=C=S)cc1 [Compound 8, 2-(4-hydroxyphenyl)ethyl isothiocyanate] | 1428 µg/mL
O=C1NCC(c2ccccc2)O1 (stereo not shown) [Compound 7, 5-Phenyl-1,3-oxazolidin-2-one] | 3100 µg/mL
S=C1NCC(c2ccccc2)O1 (racemic) [Compound 4, rac-5-Phenyl-1,3-oxazolidine-2-thione] | 3170 µg/mL

Same assay, conditions: biofilm coverage reduced by 90%

SMILES | BIC90
CSC(=S)NCCc1ccc(O)cc1 [Compound 2, methyl-4-hydroxyphenylethyl dithiocarbamate] | 4500 µg/mL
O=C(O)C1CSC(=S)N1 (stereo not shown) [Compound 3, 2-Thioxothiazolidine-4-carboxylic Acid] | >5000 µg/mL
Oc1ccc(CCN=C=S)cc1 [Compound 8, 2-(4-hydroxyphenyl)ethyl isothiocyanate] | 2400 µg/mL
O=C1NCC(c2ccccc2)O1 (stereo not shown) [Compound 7, 5-Phenyl-1,3-oxazolidin-2-one] | 4754 µg/mL
S=C1NCC(c2ccccc2)O1 (racemic) [Compound 4, rac-5-Phenyl-1,3-oxazolidine-2-thione] | >5000 µg/mL

Test system: S. enterica
Test: Inhibition of biofilm formation (crystal violet)
Type: cell-based, Salmonella enterica
Conditions: biofilm coverage reduced by 50%
Method: as §1, §2, §3

SMILES | BIC50
CSC(=S)NCCc1ccc(O)cc1 [Compound 2, methyl-4-hydroxyphenylethyl dithiocarbamate] | 1100 µg/mL
O=C(O)C1CSC(=S)N1 (stereo not shown) [Compound 3, 2-Thioxothiazolidine-4-carboxylic Acid] | 2400 µg/mL
Oc1ccc(CCN=C=S)cc1 [Compound 8, 2-(4-hydroxyphenyl)ethyl isothiocyanate] | 1547 µg/mL
O=C1NCC(c2ccccc2)O1 (stereo not shown) [Compound 7, 5-Phenyl-1,3-oxazolidin-2-one] | 1254 µg/mL
S=C1NCC(c2ccccc2)O1 (racemic) [Compound 4, rac-5-Phenyl-1,3-oxazolidine-2-thione] | 1000 µg/mL

Same assay, conditions: biofilm coverage reduced by 90%

SMILES | BIC90
CSC(=S)NCCc1ccc(O)cc1 [Compound 2, methyl-4-hydroxyphenylethyl dithiocarbamate] | 3200 µg/mL
O=C(O)C1CSC(=S)N1 (stereo not shown) [Compound 3, 2-Thioxothiazolidine-4-carboxylic Acid] | >5000 µg/mL
Oc1ccc(CCN=C=S)cc1 [Compound 8, 2-(4-hydroxyphenyl)ethyl isothiocyanate] | >5000 µg/mL
O=C1NCC(c2ccccc2)O1 (stereo not shown) [Compound 7, 5-Phenyl-1,3-oxazolidin-2-one] | >5000 µg/mL
S=C1NCC(c2ccccc2)O1 (racemic) [Compound 4, rac-5-Phenyl-1,3-oxazolidine-2-thione] | 4470 µg/mL

Test system: K. pneumoniae
Test: Inhibition of biofilm formation (crystal violet)
Type: cell-based, Klebsiella pneumoniae
Conditions: biofilm coverage reduced by 50%
Method: as §1, §2, §3

SMILES | BIC50
CSC(=S)NCCc1ccc(O)cc1 [Compound 2, methyl-4-hydroxyphenylethyl dithiocarbamate] | 580 µg/mL
O=C(O)C1CSC(=S)N1 (stereo not shown) [Compound 3, 2-Thioxothiazolidine-4-carboxylic Acid] | 1262 µg/mL
Oc1ccc(CCN=C=S)cc1 [Compound 8, 2-(4-hydroxyphenyl)ethyl isothiocyanate] | 570 µg/mL
O=C1NCC(c2ccccc2)O1 (stereo not shown) [Compound 7, 5-Phenyl-1,3-oxazolidin-2-one] | 4400 µg/mL
S=C1NCC(c2ccccc2)O1 (racemic) [Compound 4, rac-5-Phenyl-1,3-oxazolidine-2-thione] | 3978 µg/mL

Same assay, conditions: biofilm coverage reduced by 90%

SMILES | BIC90
CSC(=S)NCCc1ccc(O)cc1 [Compound 2, methyl-4-hydroxyphenylethyl dithiocarbamate] | 3600 µg/mL
O=C(O)C1CSC(=S)N1 (stereo not shown) [Compound 3, 2-Thioxothiazolidine-4-carboxylic Acid] | >5000 µg/mL
Oc1ccc(CCN=C=S)cc1 [Compound 8, 2-(4-hydroxyphenyl)ethyl isothiocyanate] | 2000 µg/mL
O=C1NCC(c2ccccc2)O1 (stereo not shown) [Compound 7, 5-Phenyl-1,3-oxazolidin-2-one] | >5000 µg/mL
S=C1NCC(c2ccccc2)O1 (racemic) [Compound 4, rac-5-Phenyl-1,3-oxazolidine-2-thione] | >5000 µg/mL

Test system: tested bacterial strains
Test: Microdilution MIC, summary over tested bacterial strains
Type: cell-based
Conditions: all tested bacteria
Method: The antimicrobial activity was evaluated against 15 microorganisms. This included 11 bacterial strains: four standard strains (Staphylococcus aureus ATCC 25923, Bacillus subtilis ATCC 6633, Bacillus pumilus NCTC 8241, and Escherichia coli ATCC 25922) and six clinical or environmental isolates (Staphylococcus aureus, Escherichia coli, Bacillus cereus, Proteus mirabilis, Salmonella enterica, and Klebsiella pneumoniae). One probiotic strain, Bifidobacterium animalis subsp. lactis was tested. In addition, four fungal strains, Candida albicans ATCC 10231, Trichoderma viride ATCC 13233, Aspergillus flavus ATCC 9170, and Fusarium solani ATCC 11712 were tested. The bacterial strains were kept in glycerol stock at −80 °C and the fungal strains in paraffin oil stock at 4 °C.
Bacterial and yeast suspensions were prepared using the direct colony method, as previously described by Andrews. The turbidity of the initial suspensions was adjusted to match the 0.5 McFarland standard using a densitometer (Biosan, Riga, Latvia), corresponding to approximately 10^8 colony-forming units (CFU)/mL for bacterial cells and 10^6 CFU/mL for yeast cells. Subsequently, 1:100 dilutions of the initial suspensions were prepared in sterile 0.85% saline. Fungal spore suspensions were obtained by gently harvesting spores from agar slopes containing mature mycelial growth. The collected spore suspensions were then diluted 1:1000 in sterile 0.85% saline prior to use.
Antimicrobial activity was evaluated by determining the minimum inhibitory concentration (MIC) and minimum microbicidal concentration (MMC) using the microdilution plate method with resazurin as an indicator [28]. In the 96-well plates, 100 μL of Mueller–Hinton broth (Torlak, Belgrade, Serbia) for bacterial testing and Sabouraud broth (Torlak, Belgrade, Serbia) for fungal testing were dispensed into each well. The compounds under investigation were initially dissolved in a 10% dimethyl sulfoxide (DMSO) solution, followed by dilution in sterile distilled water, resulting in a working compound solution containing 1% DMSO. A 100 μL aliquot of the stock solution of the tested compound was added to the first row, and twofold serial dilutions were then carried out using a multichannel pipette. The resulting concentration range was from 5 to 0.039 mg/mL. The inoculated microtiter plates were incubated at 37 °C for 24 h for bacteria, at 28 °C for 48 h for yeasts, and at 28 °C for 72 h for molds.
Each test also included growth control and sterility control. All tests were conducted in duplicate. MIC was defined as the lowest concentration of tested compounds that prevented resazurin color change from blue to pink. For molds, MIC values of the tested compound were determined as the lowest concentration that inhibited visible mycelia growth. MMC was determined by inoculation of the nutrient agar medium by plating […] of samples from wells, where no indicator color change was recorded. At the end of the incubation period, the lowest concentration with no growth (no colony) was defined as MMC.

SMILES | MIC values, range over bacterial strains
CSC(=S)NCCc1ccccc1 [Compound 1, Methyl phenethylcarbamodithioate] | 1250 to 5000 µg/mL
S=C1NCC(c2ccccc2)O1 (racemic) [Compound 4, rac-5-Phenyl-1,3-oxazolidine-2-thione] | 1250 to 5000 µg/mL

Same assay, conditions: read-out: MIC against E. coli ATCC 25922 and S. aureus ATCC 25923 (abstract)

SMILES | MIC
CSC(=S)NCCc1ccc(O)cc1 [Compound 2, methyl-4-hydroxyphenylethyl dithiocarbamate] | 312 to 1250 µg/mL (≈ 1.37 to 5.5 mM)
Oc1ccc(CCN=C=S)cc1 [Compound 8, 2-(4-hydroxyphenyl)ethyl isothiocyanate] | 312 to 1250 µg/mL (≈ 1.74 to 6.97 mM)

Same assay, conditions: tested concentrations 5 to 0.039 mg/mL

SMILES | antibacterial activity (in words)
O=C1NCC(c2ccccc2)S1 (stereo not shown) [Compound 6, 5-phenyl-1,3-thiazolidin-2-one] | no detectable antibacterial activity
